Test results reported in patent US9776992B2, “1-oxo-1,2-dihydroisoquinolin-7-yl-(5-substituted-thiophen-2-yl)-sulfonamide compounds, formulations containing those compounds, and their use as AICARFT inhibitors in the treatment of cancers” (Eli Lilly and Company, priority 2014, dated 2017).

Target: AICARFT (Homo sapiens, UniProt P31939)
Experiment: MS detection of ZMP in low folate media cultured NCI-H460 cells
Type: cell-based
Parameters: endogenous in cells; host or cells: NCI-H460
Settings: for IC50: Mean ± SEM, ZMP concentration by LC-MS, NCI-H460 cells in low folate media, 16 hours; for AICARFT inhibition in low folate media assay (in words): low levels of folate in the media, summary of Table 16
Experimental: Grow NCI-H460 cells in complete high folate RPMI media (ATCC #30-2001) until cellular confluence reaches ˜80%. Wash cells with PBS, trypsinize, resuspend cells in complete low folate RPMI media (Gibco #27016-021) and perform a cell count. Transfer 1.25×10^6 cells to a T225 flask containing complete low folate RPMI media (40 mL). Grow for seven days. Split cells again with complete low folate media if confluence surpasses 80%. Wash cells with PBS, trypsinize, resuspend cells in complete low folate RPMI media, and perform a cell count. Aliquot 10×10^6 cells in complete low folate media (1 mL)+5% DMSO per cryovial. Use a cell freezing apparatus to freeze cells in a slow and controlled manner in a −80° C. freezer. The next day, transfer cells to liquid nitrogen for long term storage. Thaw frozen cells from cryovial in 37° C. water bath, wash cells once with low folate assay medium: folate free RPMI 1640 medium (Gibco, #27016-021), Glucose (Sigma, #G5767), Hepes (Hyclone, #SH30237.01), Na Pyruvate (Hyclone, #Sh30239.01), 10% FBS (Hyclone, #SH30070.03). Adjust cells concentration to 250,000 cells/mL with medium, plate cells by adding 100 μl/well (25,000 cells/well) into Biocoat poly-D-lysine 96-well plate (BD, #35-4640), and incubate at 37° C. overnight with 5% CO2. Treat cells with 20 μl/well compound diluted in media containing 3% DMSO. Incubate at 37° C. for 16 hours with 5% CO2, then remove the medium and add 1× SureFire Lysis Buffer (50 μL) (PerkinElem, SureFire® Kit component) to each well and incubate at room temperature for 10 min with gentle shaking.
Cells grown in a 96-well plate have the media removed and are lysed in AlphaScreen® SureFire® lysis buffer. Standard curves containing ZMP, dUMP and AICAr at concentrations of 5-10,000 ng/mL are prepared in 40 mM ammonium acetate, pH 4. Aliquots (40 μL) of each standard or sample are combined in a deep 96-well plate with 160 μL of internal standard solution containing ^13C5-ZMP (custom synthesis) and ^13C5-AICAr (custom synthesis) at 100 ng/mL in 40 mM ammonium acetate, pH 4. A Beckman Biomek FX liquid handler is used to add 400 μL of DCM to each sample. Samples are sealed, vortexed for 5 minutes, and placed in the refrigerator for at least 30 minutes. The samples are centrifuged for 10 minutes at 4,000 rpm and 4° C. using an Eppendorf 5810R centrifuge, and the Biomek liquid handler is used to transfer 75 μL of the aqueous layer into a clean 96-well plate. The plates are sealed prior to analysis.
The LC-MS method utilizes a Shimadzu Prominence 20A HPLC system connected to an AB Sciex 5500™ or an AB Sciex 6500™ triple quadrupole mass spectrometer running Analyst® 2.1 software. Extracted samples are separated using a Thermo Hypercarb™ Javelin guard column (2.1×20 mm, […]) with an injection volume of 15 μL and a flow rate of 1 mL/minute. Mobile phase A is a 95:5 mixture of 50 mM ammonium formate, pH 4 and ACN. Mobile phase B is a 70:30 mixture of ACN and MeOH spiked with 0.3% formic acid and 2% concentrated ammonium hydroxide solution (v/v). The gradient is as follows: 0 minutes, 0% B; 0.25 minutes, 0% B; 2.00 minutes, 30% B; 2.01 minutes, 95% B; 3.50 minutes, 95% B, 3.51 minutes, 0% B, 5.00 minutes, stop.
The mass spectrometer is operated in positive ion TurboIonSpray® multiple reaction monitoring mode with a source temperature of 700° C. The precursor and fragment ions for each analyte are: ZMP (339→110), ^13C5-ZMP (344→110), dUMP (309→81), AICAr (259→127) and ^13C5-AICAr (264→127). Calibration curves are constructed by plotting analyte concentrations vs. analyte/internal standard peak area ratios and performing a linear fit of the data using a 1/concentration weighting with AB Sciex MultiQuant™ 2.1 software. Back-calculated ZMP concentrations are fit to a four-parameter logistic equation using ACTIVITYBASE 4.0 to determine IC50 values.

Sequence of AICARFT (P31939 whole entry): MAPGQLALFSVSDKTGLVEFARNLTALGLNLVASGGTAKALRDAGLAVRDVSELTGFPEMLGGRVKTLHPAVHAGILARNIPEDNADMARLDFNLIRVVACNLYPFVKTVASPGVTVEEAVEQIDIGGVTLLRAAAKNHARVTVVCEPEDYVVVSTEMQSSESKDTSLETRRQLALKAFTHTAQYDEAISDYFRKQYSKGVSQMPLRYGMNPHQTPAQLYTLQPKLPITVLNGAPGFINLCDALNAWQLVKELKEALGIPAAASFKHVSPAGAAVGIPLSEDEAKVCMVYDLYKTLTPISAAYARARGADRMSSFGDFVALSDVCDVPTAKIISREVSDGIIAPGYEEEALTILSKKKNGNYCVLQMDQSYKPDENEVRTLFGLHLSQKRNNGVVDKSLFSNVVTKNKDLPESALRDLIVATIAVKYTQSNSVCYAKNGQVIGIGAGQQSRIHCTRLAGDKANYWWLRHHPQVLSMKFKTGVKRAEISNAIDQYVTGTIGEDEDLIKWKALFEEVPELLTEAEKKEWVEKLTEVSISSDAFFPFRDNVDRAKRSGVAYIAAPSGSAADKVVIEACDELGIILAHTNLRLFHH

SMILES	IC50 [nM]	AICARFT inhibition in low folate media assay (in words)
O=c1[nH]ccc2cc(F)c(NS(=O)(=O)c3ccc(N4C[C@@H](O)[C@@H](F)C4)s3)cc12 (single isomer, unassigned) [Example 33]	7.93	still inhibit AICARFT
O=c1[nH]ccc2cc(F)c(NS(=O)(=O)c3ccc([C@@H]4CC[C@@H](O)C4)s3)cc12 (single isomer, unassigned) [Example 46]	39.6	still inhibit AICARFT
O=c1[nH]ccc2cc(F)c(NS(=O)(=O)c3ccc(N4C[C@@H](O)C(F)(F)C4)s3)cc12 [Example 41, 5-[(4R)-3,3-difluoro-4-hydroxypyrrolidin-1-yl]-N-(6-fluoro-1-oxo-1,2-dihydroisoquinolin-7-yl)thiophene-2-sulfonamide]	42.2	still inhibit AICARFT
CC1(C)CC(c2ccc(S(=O)(=O)Nc3cc4c(=O)[nH]ccc4cc3F)s2)=CNC1=O [Example 81, 5-(5,5-Dimethyl-6-oxo-1,4,5,6-tetrahydropyridin-3-yl)-N-(6-fluoro-1-oxo-1,2-dihydroisoquinolin-7-yl)thiophene-2-sulfonamide]	10.2	still inhibit AICARFT
CCC1(C)CC(c2ccc(S(=O)(=O)Nc3cc4c(=O)[nH]ccc4cc3F)s2)=CNC1=O (single isomer, unassigned; isomer 1) [Example 84, 5-(5-Ethyl-5-methyl-6-oxo-1,4,5,6-tetrahydropyridin-3-yl)-N-(6-fluoro-1-oxo-1,2-dihydroisoquinolin-7-yl)thiophe2ne-2-sulfonamide, Isomer 1]	10.1	still inhibit AICARFT
O=c1[nH]ccc2cc(F)c(NS(=O)(=O)c3ccc(N4CC[C@@H](O)C4)s3)cc12 [Example 1, N-(6-Fluoro-1-oxo-1,2-dihydroisoquinolin-7-yl)-5-[(3R)-3-hydroxypyrrolidin-1-yl]thiophene-2-sulfonamide]		still inhibit AICARFT
